Results reported in patent publication US20120245188A1, “METHODS OF TREATING MEMORY LOSS AND ENHANCING MEMORY PERFORMANCE” (priority 2010, published 2012).

Experiments:
[1] = tested on: seventeen month old male Fischer-344 rats; assay: Spatial reference memory, Morris Water Maze in aged rats; type: in vivo, rat
Excerpt: Working memory can also be tested using the Morris water maze. In general, the Morris water maze is a large round tub of opaque water with […] located 1-2 cm under the water's surface. The rat is placed on a start platform. The rat swims around until it finds the other platform to stand on. External cues, such as patterns or the standing researcher, are placed around the pool in the same spot every time to help the rat learn where the end platform is. The researcher measures how long it takes for a rat to find hidden platform, by changing or moving and using different spatial cues. The Morris water maze tests the spatial learning, cognitive maps and memory. The rats under the Morris water maze test may be given particular drugs or treatment conditions to see if these impair or enhance short-term memory. In one embodiment, the subject may be administered a pharmaceutical composition comprising SB 239063. The role of SB239063 on spatial memory performance was tested in the aged rat model. […] Dosing was initiated three days prior to testing and continued throughout the experiment until sacrifice (FIG. 1). Rats were tested on a maze battery including the spatial reference memory Morris maze (MM), and a delay match to sample task (DMS) where the spatial location of the platform needed to be updated on a daily basis, thereby evaluating short term memory (FIG. 2). Spatial Reference Memory—Morris Water Maze: For the Morris Water Maze, 6 trials per day for 3 days were carried out. […] Mean (±Standard Error) swim distance across all days of testing for all rats are depicted in FIG. 3.

[2] = tested on: seventeen month old male Fischer-344 rats; assay: Working memory, Delay Match to Sample water maze in aged rats; type: in vivo, rat; details: high dose 30 mg/kg/day i.p.
Method: Other methods of evaluating spatial and visual working memory include Delayed-Match to Sample (DMS) asymmetrical 3-choice task, which is illustrated in detail in the Example section. The visible platform task was used to confirm that animals have the ability to perform the procedural components of water-escape maze testing, including the visual and motoric capacities necessary to swim towards and climb onto a platform. The role of SB239063 on spatial memory performance was tested in the aged rat model. […] Dosing was initiated three days prior to testing and continued throughout the experiment until sacrifice (FIG. 1). Rats were tested on a maze battery including the spatial reference memory Morris maze (MM), and a delay match to sample task (DMS) where the spatial location of the platform needed to be updated on a daily basis, thereby evaluating short term memory (FIG. 2). […] There was a significant Trial×Treatment Interaction in the process, and the swim distance F(5,10)=2.298 (p=0.0151). The high-dose receiving group learned the task faster, indicated by committing fewer errors compared to vehicle-only rats on trial 3 (FIG. 4B).

[3] = tested on: adjuvant-induced arthritis; details: 10 mg/kg, administered orally, rats; cited from earlier work
moderate stroke = details: oral administration of 15 mg/kg before moderate stroke; cited from earlier work
cultured neurons = details: cited from earlier work
β form of p38 MAPK = β form of p38 MAPK (Homo sapiens, UniProt Q15759); details: cited from earlier work
Chain of β form of p38 MAPK (Q15759 whole entry): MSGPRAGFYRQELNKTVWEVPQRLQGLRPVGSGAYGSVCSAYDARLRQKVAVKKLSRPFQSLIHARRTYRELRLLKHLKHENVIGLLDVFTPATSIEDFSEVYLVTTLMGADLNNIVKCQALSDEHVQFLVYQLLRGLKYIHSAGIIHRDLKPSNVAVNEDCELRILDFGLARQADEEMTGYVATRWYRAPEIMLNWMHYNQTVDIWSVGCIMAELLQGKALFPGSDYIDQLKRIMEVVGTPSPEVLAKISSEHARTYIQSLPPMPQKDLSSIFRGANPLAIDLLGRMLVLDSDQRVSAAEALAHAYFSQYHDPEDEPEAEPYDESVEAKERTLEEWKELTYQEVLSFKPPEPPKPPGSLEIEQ

## COc1nccc(-c2c(-c3ccc(F)cc3)ncn2[C@H]2CC[C@H](O)CC2)n1 [SB239063, trans-1-(4-hydroxycyclohexyl)-4-(4-fluorophenyl)-5-(2-methoxypyridimidin-4-yl)imidazole]
[1]; all groups (15 and 30 mg/kg), p<0.005
  localization to the platformed quadrant during the probe trial by the last day of testing: localized to the platformed quadrant
[1]; high dose 30 mg/kg daily i.p., F(1,10)=1.531, p=0.244
  linear trend for swim distance scores across days: did not show a linear trend
[1]; high dose 30 mg/kg/day i.p.
  Morris Water Maze spatial reference memory performance as days progressed: impaired
[1]; low dose 15 mg/kg daily i.p., F(1,10)=19.253, p=0.001
  linear trend for swim distance scores across days: showed a significant linear trend
[1]; low dose 15 mg/kg/day i.p.
  Morris Water Maze spatial reference memory performance as days progressed: exhibited significant learning
[2]; Fisher post hoc p=0.011
  Three Choice Task errors on trial 3 compared to vehicle-only rats: fewer errors
[2]; p=0.01
  performance on DMS compared to vehicle-treated animals (learning of the new platform location): enhanced performance
[3]
  reduction of adjuvant-induced arthritis: 51%
Moderate stroke
  reduction of infarct volume: 48%
  reduction of neurological deficits: 42%
Cultured neurons; NMDA (N-methyl D-aspartate)
  protection against mild excitotoxic neuronal injury caused by NMDA: protect against mild excitotoxic neuronal injury
Cultured neurons; cultured neurons
  protection against cell death induced by oxygen glucose deprivation (OGD) or magnesium deprivation: substantial protection against cell death
β form of p38 MAPK
  inhibition of β form of p38 MAPK: inhibits
